From patent publication US20240325312A1, “Composition comprising cannabidiol and hydroxychloroquine in a fixed dose combination capsule” (priority 2021, published 2024)

Key:
[1] = system: human peripheral blood mononuclear cells (PBMCs); experiment: LPS-stimulated cytokine release from human PBMCs, checkerboard, Luminex; type: cell-based
Protocol: The anti-inflammatory activity the combination of CBD and hydroxychloroquine was assessed by determining cytokine release from human peripheral blood mononuclear cells (PBMCs) stimulated with bacterial lipopolysaccharide (LPS) using a Luminex based assay. A 96-well microtitre plate-based checkerboard assay with seven concentrations (including the no drug control) of CBD and hydroxychloroquine were assessed in combination was used to determine the drug-drug interaction. Briefly, frozen PMBCs from two independent donors were thawed, diluted in culture medium, seeded into 96-well microtitre plates and incubated at 37° C., 5% CO2 for 1 hour prior to the addition of test compounds. After the addition of the test compounds the cells were returned to the incubator for 1 hour, after which LPS was added to the wells. Plates were incubated at 37° C., 5% CO2 for 24 hours. After 24 hours, cell culture supernatants were removed and analysed for cytokine levels using Luminex methodology according to manufacturers' instructions. All values had the vehicle background subtracted prior to further analysis. Three plates were set up in parallel using the PBMCs from the same donor. Inhibition of cytokine release was determined relative to the no treatment control (i.e., that was stimulated with LPS) and averaged across the three replicates. A cytotoxicity assay using AlmarBlue with the identical plate set up was performed in parallel.
(§1) Drug synergy was determined using the Bliss Independence method where the predicted effect of the drug combination is calculated using the equation: […]

C57BL/6 mice = experiment: Lipopolysaccharide (LPS)-induced sepsis, serum cytokines; type: in vivo
Protocol: Male C57BL/6 mice weighing 10-20 g were used. Vehicle and active agents (i.e., CBD and hydroxychloroquine) alone or in combination were administered intraperitoneally (IP) or orally at 1 hour before LPS (100 μg/100 μL/mouse) injected intravenously (IV). At 2 hours after LPS injection, blood was collected from all mice by cardiac puncture, sera processed and assayed for biomarkers using either the Th17-plex for IL-1β, IL-2, IL-10, IL-12 (p70), IFN-γ and TNF-α by Luminex, plus IL-6 and D-dimer by ELISA, or the 23-plex for IL-1α, IL-1β, IL-2, IL-3, IL-4, IL-5, IL-6, IL-9, IL-10, IL-12(p40), IL-12(p70), IL-13, IL-17A, Eotaxin, G-CSF, GM-CSF, IFN-γ, KC, MCP-1(MCAF), MIP-1α, […], RANTES, and TNF-α by Luminex, plus IL-6 by ELISA. ANOVA followed by Dunnett's test was applied for comparison between vehicle and treatment groups. p<0.05 is considered significant.
For synergy analysis, data were baseline subtracted using the cytokine levels of sham treated mice (i.e., no LPS injection), before normalizing the values for each cytokine relative to maximum values across the groups. The normalized values were used to calculate the relative inhibition where a value of 1 represents complete inhibition and a value of 0 represents no inhibition. Synergy was calculated using the statistical methods described elsewhere herein.
as §1

BALB/c mice = experiment: TNBS-induced colitis; type: in vivo; details: H&E
Source text: Male BALB/c were used as an in vivo model of colitis, induced by intracolonic administration of 2,4,6-trinitrobenzene sulfonic acid (TNBS) in 50% ethanol, as previously described by Antoniou et al. (2016, Annals of Medicine and Surgery, 11: 9-15). Briefly, the ethanol disrupts the intestinal barrier, permitting TNBS to interact with colon proteins. Interaction of TNBS with high-molecular weight proteins renders them immunogenic, leading to Th1 mediated inflammation, which is causative of symptoms include inconsistent stool formation and blood in the faeces. […]
Other endpoint measures of stool consistency score (i.e., 0—normal stools, 1, soft but still formed stools, 2—very soft stools, 3—diarrhoea), faecal occult blood score (i.e., 0—negative hemoccult, 1—positive hemoccult, 2—blood traces in stool visible, 3—rectal bleeding), colon weight, colon macroscopic damage score (a composite of adhesions, strictures, ulcers/inflammations and wall thickness) and myeloperoxidase levels in the colon tissue were also assessed. The data from each of these endpoints was baseline subtracted using the equivalent measures from sham treated mice (i.e., no TNBS) and reduction in any measure calculated as a relative reduction. Synergy was calculated using the statistical methods described elsewhere herein.

Lewis rats [2] = experiment: Collagen-induced arthritis; type: in vivo; parameters: key to Relative reduction in pannus score / Relative reduction in total histology score / Reduction in pannus score / Reduction in total histology score / Reduction in IL-1B / Reduction in IL-6 / Reduction in clinical score: fractional reduction vs vehicle control, sham baseline subtracted
Protocol: Female Lewis rats were challenged with porcine type-II collagen with Freund's adjuvant on Day 1 (0.2 mg/0.2 mL/rat) by subcutaneous injection at the base of the tail to induce arthritis. A booster injection at 0.1 mg/0.1 mL/rat) was administered on Day 7. On Day 16, rats were allocated into groups of six based on hind paw volume, with animals allocated into groups to provide a similar distribution of hind paw volumes.
Vehicle and active agents (i.e., CBD and hydroxychloroquine) alone or in combination were administered intraperitoneally (IP) once a day starting from Day 17 to Day 30, i.e., for a total of 14 consecutive days.
Disease was assessed by measuring hind paw volume with plethysmometer and using a qualitative severity score system as outlined in Table 16 on Day 1, 7, 10, 14, 16, 18, 20, 22, 24, 26, 28 and 30.
Post-termination on Day 30, blood was collected from all rats and analysed for levels of the inflammatory cytokines […], IL-6 and TNF-α by ELISA. Both hind paws were harvested, weighed and formalin-fixed for histopathology. Tissue was assessed to evaluate cartilage and bone destruction by pannus formation and mononuclear cell infiltration in synovial tissues according to the scoring matrices set out in Tables 17 and 18. A total histology score, being the sum of the pannus formation and mononuclear cell infiltration score, was also calculated.
For synergy analysis, data were baseline subtracted using sham treated […] (i.e., no collagen injection), before normalizing the values relative to vehicle control. Synergy was calculated using the statistical methods described elsewhere herein.

Lewis rats [3] = experiment: Collagen-induced arthritis; type: in vivo; details: Day 30

For `C=C(C)[C@@H]1CCC(C)=C[C@H]1c1c(O)cc(CCCCC)cc1O` [CBD, cannabidiol], the “FIE, IL-1α release” value ([1]; Donor 1, CBD 5.00 μg/mL) was 0.40, the “FIE, IL-1β release” value ([1]; Donor 1, CBD 5.00 μg/mL) was 0.38 and the “FIE, IL-6 release” value ([1]; Donor 1, CBD 5.00 μg/mL) was 0.08. The “FIE, MIP-1α release” value ([1]; Donor 1, CBD 5.00 μg/mL) was 0.12, the “FIE, TNF-α release” value ([1]; Donor 1, CBD 5.00 μg/mL) was 0.05 and the “FIE, IL-1α release” value ([1]; Donor 2, CBD 5.00 μg/mL) was 0.28. The “FIE, IL-1β release” value ([1]; Donor 2, CBD 5.00 μg/mL) was 0.13, the “FIE, IL-6 release” value ([1]; Donor 2, CBD 5.00 μg/mL) was 0.09 and the “FIE, MIP-1α release” value ([1]; Donor 2, CBD 5.00 μg/mL) was 0.00. For the same compound, the “FIE, TNF-α release” value ([1]; Donor 2, CBD 5.00 μg/mL) was 0.07, the “Relative inhibition of IFN-γ release” value (C57BL/6 mice; CBD 10 mg/kg) was 0.00 and the “Relative inhibition of IL-1β release” value (C57BL/6 mice; CBD 10 mg/kg) was 0.34. The “Relative inhibition of IL-6 release” value (C57BL/6 mice; CBD 10 mg/kg) was 0.14, the “Relative inhibition of IL-12(p70) release” value (C57BL/6 mice; CBD 10 mg/kg) was 0.00 and the “Relative inhibition of TNF-α release” value (C57BL/6 mice; CBD 10 mg/kg) was 0.00. The “Relative inhibition of IL-6 release” value (C57BL/6 mice; CBD 25 mg/kg) was 0.03, the “Colon tissue histology finding (FIG. 4)” value (BALB/c mice; CBD (1 mg/kg)) was “regions of inflammatory cell infiltration in submucosal edema” and the “Relative reduction in pannus score” value (Lewis rats [2]; Day 30, CBD 1 mg/kg) was 0.07. The “Relative reduction in serum IL-6 level” value (Lewis rats [2]; Day 30, CBD 1 mg/kg) was 0.50, the “Relative reduction in total histology score” value (Lewis rats [2]; Day 30, CBD 1 mg/kg) was 0.11 and the “Relative reduction in serum IL-1β level” value (Lewis rats [3]; CBD 1 mg/kg) was 0.31.

For `CCN(CCO)CCCC(C)Nc1ccnc2cc(Cl)ccc12` (stereo not drawn) [HCQ, 2-[[4-[(7-chloro-4-quinolinyl)amino]pentyl]-thylamino]ethanol], the “FIE, IL-1α release” value ([1]; Donor 1, HCQ 0.63 μg/mL) was 0.03, the “FIE, IL-1β release” value ([1]; Donor 1, HCQ 0.63 μg/mL) was 0.08 and the “FIE, IL-6 release” value ([1]; Donor 1, HCQ 0.63 μg/mL) was 0.12. For the same compound, the “FIE, TNF-α release” value ([1]; Donor 1, HCQ 0.63 μg/mL) was 0.00, the “FIE, IL-1α release” value ([1]; Donor 1, HCQ 1.25 μg/mL) was 0.01 and the “FIE, IL-1β release” value ([1]; Donor 1, HCQ 1.25 μg/mL) was 0.07. The “FIE, IL-6 release” value ([1]; Donor 1, HCQ 1.25 μg/mL) was 0.00, the “FIE, TNF-α release” value ([1]; Donor 1, HCQ 1.25 μg/mL) was 0.08 and the “FIE, IL-1α release” value ([1]; Donor 1, HCQ 2.50 μg/mL) was 0.12. For the same compound, the “FIE, IL-1β release” value ([1]; Donor 1, HCQ 2.50 μg/mL) was 0.08, the “FIE, IL-6 release” value ([1]; Donor 1, HCQ 2.50 μg/mL) was 0.10 and the “FIE, MIP-1α release” value ([1]; Donor 1, HCQ 2.50 μg/mL) was 0.00. The “FIE, TNF-α release” value ([1]; Donor 1, HCQ 2.50 μg/mL) was 0.05, the “FIE, IL-1α release” value ([1]; Donor 1, HCQ 5.00 μg/mL) was 0.24 and the “FIE, IL-1β release” value ([1]; Donor 1, HCQ 5.00 μg/mL) was 0.17. The “FIE, IL-6 release” value ([1]; Donor 1, HCQ 5.00 μg/mL) was 0.08, the “FIE, TNF-α release” value ([1]; Donor 1, HCQ 5.00 μg/mL) was 0.02 and the “FIE, IL-1α release” value ([1]; Donor 1, HCQ 10.00 μg/mL) was 0.50. The “FIE, IL-1β release” value ([1]; Donor 1, HCQ 10.00 μg/mL) was 0.68, the “FIE, IL-6 release” value ([1]; Donor 1, HCQ 10.00 μg/mL) was 0.00 and the “FIE, TNF-α release” value ([1]; Donor 1, HCQ 10.00 μg/mL) was 0.04. For the same compound, the “FIE, IL-1α release” value ([1]; Donor 1, HCQ 20.00 μg/mL) was 0.54, the “FIE, IL-1β release” value ([1]; Donor 1, HCQ 20.00 μg/mL) was 0.81 and the “FIE, IL-6 release” value ([1]; Donor 1, HCQ 20.00 μg/mL) was 0.12. For the same compound, the “FIE, MIP-1α release” value ([1]; Donor 1, HCQ 20.00 μg/mL) was 0.00, the “FIE, TNF-α release” value ([1]; Donor 1, HCQ 20.00 μg/mL) was 0.30 and the “FIE, IL-1α release” value ([1]; Donor 2, HCQ 0.63 μg/mL) was 0.07. The “FIE, IL-1β release” value ([1]; Donor 2, HCQ 0.63 μg/mL) was 0.06, the “FIE, IL-1α release” value ([1]; Donor 2, HCQ 1.25 μg/mL) was 0.11 and the “FIE, IL-1α release” value ([1]; Donor 2, HCQ 2.50 μg/mL) was 0.19. For the same compound, the “FIE, IL-1β release” value ([1]; Donor 2, HCQ 2.50 μg/mL) was 0.07, the “FIE, IL-1α release” value ([1]; Donor 2, HCQ 5.00 μg/mL) was 0.49 and the “FIE, TNF-α release” value ([1]; Donor 2, HCQ 5.00 μg/mL) was 0.02. For the same compound, the “FIE, IL-1α release” value ([1]; Donor 2, HCQ 10.00 μg/mL) was 0.68, the “FIE, IL-6 release” value ([1]; Donor 2, HCQ 10.00 μg/mL) was 0.11 and the “FIE, MIP-1α release” value ([1]; Donor 2, HCQ 10.00 μg/mL) was 0.00. For the same compound, the “FIE, TNF-α release” value ([1]; Donor 2, HCQ 10.00 μg/mL) was 0.18, the “FIE, IL-1α release” value ([1]; Donor 2, HCQ 20.00 μg/mL) was 0.63 and the “FIE, IL-6 release” value ([1]; Donor 2, HCQ 20.00 μg/mL) was 0.47. For the same compound, the “FIE, MIP-1α release” value ([1]; Donor 2, HCQ 20.00 μg/mL) was 0.00, the “Colon tissue histology finding (FIG. 4)” value (BALB/c mice; hydroxychloroquine (2.5 mg/kg)) was “regions of mild abnormality, cyctic dilation and aberrant crypts” and the “Reduction in clinical score” value (Lewis rats [2]; Day 24, HCQ 25 mg/kg) was 0.21. For the same compound, the “Reduction in paw volume” value (Lewis rats [2]; Day 24, HCQ 25 mg/kg) was 0.10, the “Relative reduction in pannus score” value (Lewis rats [2]; Day 30, HCQ 2.5 mg/kg) was 0.07 and the “Relative reduction in serum IL-6 level” value (Lewis rats [2]; Day 30, HCQ 2.5 mg/kg) was 0.51. The “Relative reduction in total histology score” value (Lewis rats [2]; Day 30, HCQ 2.5 mg/kg) was 0.15, the “Reduction in clinical score” value (Lewis rats [2]; Day 30, HCQ 25 mg/kg) was 0.26 and the “Reduction in paw volume” value (Lewis rats [2]; Day 30, HCQ 25 mg/kg) was 0.20. For the same compound, the “Reduction in mononuclear cell infiltration” value (Lewis rats [2]; HCQ 25 mg/kg) was 0.24, the “Reduction in pannus score” value (Lewis rats [2]; HCQ 25 mg/kg) was 0.28 and the “Reduction in total histology score” value (Lewis rats [2]; HCQ 25 mg/kg) was 0.26. For the same compound, the “Reduction in IL-1B” value (Lewis rats [2]; serum, HCQ 25 mg/kg) was 0.25, the “Reduction in IL-6” value (Lewis rats [2]; serum, HCQ 25 mg/kg) was 0.36 and the “Relative reduction in serum IL-1β level” value (Lewis rats [3]; HCQ 2.5 mg/kg) was 0.37.
